# Assay results reported in patent US6737383B1, “Herbicidal oxadiazolidines” (priority 1999, dated 2004).
# Columns and labels:
# rape = experiment: Test B pre/postemergence rape; format: in vivo, Brassica napus
# How it was run: (§1)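 Response is a visual 0-to-10 score relative to untreated plants, where 0 means no effect and 10 means complete control, taken twelve to sixteen days after application. Treatments went onto soil at planting and onto foliage of 1- to 4-leaf plants, using a surfactant-containing non-phytotoxic solvent.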
# bedstraw = experiment: Test B pre/postemergence bedstraw; format: in vivo, Galium aparine
# How it was run: as §1
# corn = experiment: Test B pre/postemergence corn; format: in vivo, Zea mays
# How it was run: as §1
# smallflower flatsedge = experiment: Test B flood test smallflower flatsedge; format: in vivo, Cyperus difformis; conditions: Pre-emergence
# How it was run: (§2)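 Flood test on plants grown to the 2-leaf stage; treated plants kept in greenhouse twelve to sixteen days, then visually rated against controls on a 0 (no effect) to 10 (complete control) scale.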
# sugar beet = experiment: Test B pre/postemergence sugar beet; format: in vivo, Beta vulgaris
# How it was run: as §1
# surinam grass = experiment: Test B pre/postemergence surinam grass; format: in vivo, Brachiaria decumbens
# How it was run: as §1
# rice = experiment: Test B flood test rice; format: in vivo, Oryza sativa; conditions: Pre-emergence
# How it was run: as §2
# wild oat = experiment: Test B pre/postemergence wild oat; format: in vivo, Avena fatua
# How it was run: as §1
# pigweed = experiment: Test B pre/postemergence pigweed; format: in vivo, Amaranthus retroflexus
# How it was run: as §1
# blackgrass = experiment: Test B pre/postemergence blackgrass; format: in vivo, Alopecurus myosuroides
# How it was run: as §1
# soybean = experiment: Test B pre/postemergence soybean; format: in vivo, Glycine max
# How it was run: as §1
# bamyardgrass = experiment: Test B flood test barnyardgrass; format: in vivo, Echinochloa crus-galli; conditions: Pre-emergence
# How it was run: as §2
# velvetleaf = experiment: Test B pre/postemergence velvetleaf; format: in vivo, Abutilon theophrasti
# How it was run: as §1
# cocklebur = experiment: Test B pre/postemergence cocklebur; format: in vivo, Xanthium strumarium
# How it was run: as §1
# purple nutsedge = experiment: Test B pre/postemergence purple nutsedge; format: in vivo, Cyperus rotundus
# How it was run: as §1
# morningglory = experiment: Test B pre/postemergence morningglory; format: in vivo, Ipomoea hederacea
# How it was run: as §1
# [1] = Postemergence, Rate 1000 g/ha, scale 0 to 10 (0 no effect, 10 complete control)
# [2] = Preemergence, Rate 250 g/ha, scale of 0 to 10 where 0 is no effect and 10 is complete control
# [3] = Preemergence, Rate 500 g/ha, scale of 0 to 10 where 0 is no effect and 10 is complete control
# [4] = Rate 125 g/ha, Postemergence, scale of 0 to 10 where 0 is no effect and 10 is complete control
# [5] = Rate 125 g/ha, Preemergence, scale of 0 to 10 where 0 is no effect and 10 is complete control
# [6] = Rate 250 g/ha, Postemergence, scale of 0 to 10 where 0 is no effect and 10 is complete control
# [7] = Rate 500 g/ha, Postemergence, scale 0 to 10, 0 no effect, 10 complete control
# [8] = Rate 1000 g/ha, Preemergence, scale 0 to 10 (0 no effect, 10 complete control)
# [9] = Rate 1000 g/ha, scale 0 to 10 (0 no effect, 10 complete control)
# [10] = Rate 125 g/ha, flood test species, scale 0 to 10 where 0 is no effect and 10 is complete control
# [11] = Rate 250 g/ha, flood-test species, scale 0 to 10, 0 is no effect, 10 is complete control
# [12] = Rate 500 g/ha, flood test species, scale 0 to 10 (0 no effect, 10 complete control)
structure (smiles),measurement,setting,value
C=CCn1c(=O)on(C(=O)N(c2ccc(F)cc2)C(C)C(=O)OCC)c1=O (stereo not drawn) [Compound 279],Rape plant response rating,rape; [1],0
same,Rape plant response rating,rape; [2],0
same,"Plant response rating, Rape",rape; [3],0
same,Rape plant response rating,rape; [4],0
same,Rape plant response rating,rape; [5],0
same,"Plant response rating, Rape",rape; [6],0
same,Rape plant response rating,rape; [7],0
same,"Plant response rating, Rape",rape; [8],0
same,Bedstraw plant response rating,bedstraw; [1],0
same,Bedstraw plant response rating,bedstraw; [2],0
same,"Plant response rating, Bedstraw",bedstraw; [3],0
same,Bedstraw plant response rating,bedstraw; [4],0
same,Bedstraw plant response rating,bedstraw; [5],0
same,"Plant response rating, Bedstraw",bedstraw; [6],0
same,Bedstraw plant response rating,bedstraw; [7],0
same,"Plant response rating, Bedstraw",bedstraw; [8],0
same,Corn plant response rating,corn; [1],0
same,Corn plant response rating,corn; [2],0
same,"Plant response rating, Corn",corn; [3],0
same,Corn plant response rating,corn; [4],0
same,Corn plant response rating,corn; [5],0
same,"Plant response rating, Corn",corn; [6],0
same,Corn plant response rating,corn; [7],0
same,"Plant response rating, Corn",corn; [8],0
same,S. Flatsedge plant response rating,smallflower flatsedge; [9],0
same,S. Flatsedge plant response rating,smallflower flatsedge; [10],0
same,S. Flatsedge plant response rating,smallflower flatsedge; [11],0
same,S. Flatsedge plant response rating,smallflower flatsedge; [12],0
same,Sugarbeets plant response rating,sugar beet; [1],4
same,Sugarbeets plant response rating,sugar beet; [2],0
same,"Plant response rating, Sugarbeets",sugar beet; [3],0
same,Sugarbeets plant response rating,sugar beet; [4],0
same,Sugarbeets plant response rating,sugar beet; [5],0
same,"Plant response rating, Sugarbeets",sugar beet; [6],0
same,Sugarbeets plant response rating,sugar beet; [7],0
same,"Plant response rating, Sugarbeets",sugar beet; [8],0
same,B. signalgrass plant response rating,surinam grass; [1],0
same,B. signalgrass plant response rating,surinam grass; [2],0
same,"Plant response rating, B. signalgrass",surinam grass; [3],0
same,B. signalgrass plant response rating,surinam grass; [4],0
same,B. signalgrass plant response rating,surinam grass; [5],0
same,"Plant response rating, B. signalgrass",surinam grass; [6],0
same,B. signalgrass plant response rating,surinam grass; [7],0
same,"Plant response rating, B. signalgrass",surinam grass; [8],0
same,Rice plant response rating,rice; [9],0
same,Rice plant response rating,rice; [10],0
same,Rice plant response rating,rice; [11],0
same,Rice plant response rating,rice; [12],0
same,Wild oats plant response rating,wild oat; [1],0
same,Wild oats plant response rating,wild oat; [2],0
same,"Plant response rating, Wild oats",wild oat; [3],0
same,Wild oats plant response rating,wild oat; [4],0
same,"Plant response rating, Wild oats",wild oat; [6],0
same,Wild oats plant response rating,wild oat; [7],0
same,"Plant response rating, Wild oats",wild oat; [8],0
same,Redroot pigweed plant response rating,pigweed; [1],4
same,Redroot pigweed plant response rating,pigweed; [2],0
same,"Plant response rating, Redroot pigweed",pigweed; [3],0
same,Redroot pigweed plant response rating,pigweed; [4],0
same,Redroot pigweed plant response rating,pigweed; [5],0
same,"Plant response rating, Redroot pigweed",pigweed; [6],2
same,Redroot pigweed plant response rating,pigweed; [7],2
same,"Plant response rating, Redroot pigweed",pigweed; [8],0
same,Blackgrass plant response rating,blackgrass; [1],6
same,Blackgrass plant response rating,blackgrass; [2],0
same,"Plant response rating, Blackgrass",blackgrass; [3],0
same,Blackgrass plant response rating,blackgrass; [4],0
same,Blackgrass plant response rating,blackgrass; [5],0
same,"Plant response rating, Blackgrass",blackgrass; [6],2
same,Blackgrass plant response rating,blackgrass; [7],4
same,"Plant response rating, Blackgrass",blackgrass; [8],0
same,Soybean plant response rating,soybean; [1],4
same,Soybean plant response rating,soybean; [2],0
same,"Plant response rating, Soybean",soybean; [3],0
same,Soybean plant response rating,soybean; [4],0
same,Soybean plant response rating,soybean; [5],0
same,"Plant response rating, Soybean",soybean; [6],2
same,Soybean plant response rating,soybean; [7],4
same,"Plant response rating, Soybean",soybean; [8],0
same,Barnyardgrass plant response rating,bamyardgrass; [9],0
same,Barnyardgrass plant response rating,bamyardgrass; [10],0
same,Barnyardgrass plant response rating,bamyardgrass; [11],0
same,Barnyardgrass plant response rating,bamyardgrass; [12],0
same,Velvetleaf plant response rating,velvetleaf; [1],0
same,Velvetleaf plant response rating,velvetleaf; [2],0
same,"Plant response rating, Velvetleaf",velvetleaf; [3],0
same,Velvetleaf plant response rating,velvetleaf; [4],0
same,Velvetleaf plant response rating,velvetleaf; [5],0
same,"Plant response rating, Velvetleaf",velvetleaf; [6],0
same,Velvetleaf plant response rating,velvetleaf; [7],0
same,"Plant response rating, Velvetleaf",velvetleaf; [8],0
same,Cocklebur plant response rating,cocklebur; [1],0
same,"Plant response rating, Cocklebur",cocklebur; [3],0
same,Cocklebur plant response rating,cocklebur; [4],0
same,"Plant response rating, Cocklebur",cocklebur; [6],0
same,Cocklebur plant response rating,cocklebur; [7],0
same,"Plant response rating, Cocklebur",cocklebur; [8],0
same,Nutsedge plant response rating,purple nutsedge; [1],0
same,Nutsedge plant response rating,purple nutsedge; [2],0
same,Nutsedge plant response rating,purple nutsedge; [4],0
same,"Plant response rating, Nutsedge",purple nutsedge; [6],0
same,Nutsedge plant response rating,purple nutsedge; [7],0
same,"Plant response rating, Nutsedge",purple nutsedge; [8],0
same,Morningglory plant response rating,morningglory; [1],3
same,Morningglory plant response rating,morningglory; [2],0
same,"Plant response rating, Morningglory",morningglory; [3],0
same,Morningglory plant response rating,morningglory; [4],1
same,Morningglory plant response rating,morningglory; [5],0
same,"Plant response rating, Morningglory",morningglory; [6],2
same,Morningglory plant response rating,morningglory; [7],2
same,"Plant response rating, Morningglory",morningglory; [8],0
